Assay results published in PubChem BioAssay (NCI).
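Each compound was tested at five concentrations against cells in 96-well plates for 48 hours. TGI marks complete inhibition of growth.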

Experiments:
Assay in all cases: inhibition of tumour cell growth, NCI panel, 48 h
[1] = system: 786-0 renal
[2] = system: EKVX NSCLC
[3] = system: HS 578T breast
[4] = system: IGROV1 ovarian
[5] = system: MDA-MB-435
[6] = system: NCI-H226 lung
[7] = system: NCI/ADR-RES ovarian
[8] = system: OVCAR-8 ovarian
[9] = system: RXF 393 renal
[10] = system: SF-295 CNS
[11] = system: SK-MEL-5 melanoma

| SMILES | TGI [1] | TGI [2] | TGI [3] | TGI [4] | TGI [5] | TGI [6] | TGI [7] | TGI [8] | TGI [9] | TGI [10] | TGI [11] |
| --- | --- | --- | --- | --- | --- | --- | --- | --- | --- | --- | --- |
| CCOC(=O)C1=C(C)N(Cc2ccccc2)C2(O)C(OC)CC(=O)C3C(=O)N(c4ccccc4)C(=O)C132 (stereo not given) | > 100 µM | 60 µM | > 100 µM | 37.6 µM | > 100 µM | 37.5 µM | > 100 µM | 31.9 µM | 94.1 µM | 47.5 µM | 37.1 µM |
| ClC1=C(Cl)C2OC3C=CCC3OC2C(Cl)=C1Cl (stereo not given) | > 100 µM | > 100 µM | 89.7 µM | > 100 µM | > 100 µM | > 100 µM | > 100 µM | > 100 µM | > 100 µM | > 100 µM | > 100 µM |
| OCC(S)CS.[Bi] (stereo not given) | 39.3 µM | 45.4 µM | 53.5 µM | 54.9 µM | 35.6 µM | > 100 µM | > 100 µM | 52.3 µM | 26.2 µM | > 100 µM | > 100 µM |
| CCC(C)N1CN(c2ccccc2)C2(CCN(CCCC3(c4ccc(F)cc4)OCCO3)CC2)C1=O (stereo not given) | 13.3 µM | 17.6 µM | 14.2 µM | 30.7 µM | 45.6 µM | 32.7 µM | 27.6 µM | 20.6 µM | 26.5 µM | 10.6 µM | 8.24 µM |
| Cc1ccc(C)c2c1n1c(=O)n(C)c(=O)n21 | > 100 µM | > 100 µM | > 100 µM | > 100 µM | > 100 µM | > 100 µM | > 100 µM | > 100 µM | > 100 µM | > 100 µM | > 100 µM |
| Cc1ccsc1/C=N/Nc1cc(C)c2ccccc2n1 | 31.8 µM | 28.8 µM | 38.6 µM | 6.33 µM | 30 µM | 37.1 µM | 31 µM | 32.7 µM | 47.8 µM | 37.8 µM | 9 µM |
| Cc1cc(OCc2nnc3n2N=C(c2cc(F)c(Cl)cc2Cl)/C(=C/c2ccc(-c4ccc(Cl)cc4)o2)S3)ccc1Cl | > 50 µM | > 50 µM | > 50 µM | > 50 µM | > 50 µM | > 50 µM | > 50 µM | > 50 µM | > 50 µM | > 50 µM | > 50 µM |
| CSc1c(C)n([O-])c2cc(Cl)c(Cl)cc2[n+]1=O | 33.2 µM | 31 µM | > 68.5 µM | 30.8 µM | 36.7 µM | 27.1 µM | 39.3 µM | 32.3 µM | 45.6 µM | > 100 µM | 34.3 µM |
| O=C1Nc2ccccc2SC1=C(C(=O)c1ccccc1)C(=O)c1ccccc1 | > 100 µM | > 100 µM | > 100 µM | > 100 µM | 55.6 µM | > 87.5 µM | > 100 µM | > 100 µM | > 100 µM | 57.5 µM | > 100 µM |
| CC1=NN2CCC(=O)N=C2S1 | > 100 µM | > 100 µM | > 100 µM | > 100 µM | > 100 µM | > 100 µM | > 100 µM | > 100 µM | > 100 µM | > 100 µM | > 100 µM |
| CCN(CC)C(=O)c1cc([N+](=O)[O-])c(=O)n2c1[nH]c1ccccc12 | > 100 µM | > 100 µM | > 100 µM | > 100 µM | > 100 µM | > 100 µM | > 100 µM | > 100 µM | > 100 µM | > 100 µM | > 100 µM |
| COc1ccc(/N=N/C(=NNC(=O)c2ccc(C)cc2)c2ccc(N(C)C)cc2)cc1 | > 100 µM | > 100 µM | > 100 µM | > 100 µM | 62.7 µM | > 100 µM | > 100 µM | > 100 µM | > 100 µM | > 100 µM | > 95.3 µM |
| CC1CN=C(c2ccc(CN3CCC(CCCC4CCN(Cc5ccc(C6=NCC(C)N6)cc5)CC4)CC3)cc2)N1 (stereo not given) | > 100 µM | 92 µM | > 100 µM | > 100 µM | 36.7 µM | > 100 µM | > 100 µM | > 100 µM | > 100 µM | > 100 µM | > 100 µM |
| CN1C/C(=C\c2cccs2)C(=O)/C(=C/c2cccs2)C1 | 49.2 µM | 75.8 µM | > 100 µM | 92.2 µM | 34.1 µM | > 100 µM | 94.5 µM | 74 µM | 54.8 µM | > 100 µM | > 100 µM |
| O=C(O)C1CSC2(CCCN(Cc3ccccc3)C2)N1 (stereo not given) | > 100 µM | > 100 µM | > 100 µM | > 100 µM | > 100 µM | > 100 µM | > 100 µM | > 100 µM | > 100 µM | > 100 µM | > 100 µM |
| CC1=NN(c2nc(N)nc(-c3cc4ccccc4oc3=N)n2)C(C)(C)C1 | 29.8 µM | 32.8 µM | 48.1 µM | 32.1 µM | 41.8 µM | 30.4 µM | 43.9 µM | 53 µM | 43.5 µM | 32.6 µM | 30.6 µM |
| O=C1c2cc3ncsc3cc2C(=O)c2c(O)ccc(O)c21 | > 100 µM | > 100 µM | > 100 µM | > 100 µM | > 100 µM | > 100 µM | > 100 µM | > 100 µM | > 100 µM | > 100 µM | > 100 µM |
| COC(=O)/C=C\C(C#N)(C#N)N=Cc1ccc(Br)cc1 | > 48.9 µM | 29.6 µM | 49.7 µM | 37 µM | 22.4 µM | 20.6 µM | 76 µM | 21.5 µM | 17.8 µM | 34.7 µM | 3.92 µM |
| C=C(Cl)CN1c2ccccc2C=Cc2ccccc21 | > 100 µM | 49.9 µM | > 100 µM | > 100 µM | 44.7 µM | 70.2 µM | > 100 µM | > 100 µM | 33 µM | 35.2 µM | 20.3 µM |
| NC(=S)NS(=O)(=O)c1ccc(Cl)cc1 | > 100 µM | > 100 µM | > 100 µM | > 100 µM | > 100 µM | > 100 µM | > 100 µM | > 100 µM | > 100 µM | > 100 µM | > 100 µM |
